Measured values as given in article PMC5067331, “Large Gliadin Peptides Detected in the Pancreas of NOD and Healthy Mice following Oral Administration” (Journal of Diabetes Research, 2016).
Entries after “also recorded” stand apart in the source; their conditions may differ. Read-outs that look alike come from different tables or passages of the source. Ends that are not written are not given here.

How the values were obtained:
[1] = MALDI-TOF MS of 33-mer fragments in plasma and pancreas after oral administration; conditions: for Sample in which the 33-mer fragment was found: mice 6–20 weeks, 500–900 μg 33-mer p.o., plasma and pancreas 45–60 min after administration, sequence assigned by mass match
Method: Plasma was fractionated in Amicon Ultra 10 kDa centrifugal filter units (Merck Millipore), Vivaspin 500, 5 kDa filter units (Sartorius), PD10 columns, Amicon Ultra 0.5 mL 10 kDa centrifugal filters, or SEP-PAK C18 Plus short cartridges (Waters), or they were ethanol-precipitated or acid-ethanol extracted. Slices from nonfixed gels were extracted overnight at 37°C in 100 μL of 50 mM NH4CO3 with or without 12.5 ng/μL Endoproteinase Glu-C Sequencing Grade (Roche Diagnostics). The gel slices were further extracted on a shaker for 15 min in 20 μL extraction buffer (1 : 2 (vol/vol) 50 mM NH4HCO3/acetonitrile). The extracts were combined.
Samples were dried in a vacuum concentrator (Eppendorf 5301) and reconstituted in 20 μL 5% acetic acid before desalting using POROS C18 matrix and elution onto a stainless steel 96-well MALDI target plate with 1 μL α-cyano-4-hydroxycinnamic acid (HCCA matrix) ready-made from Agilent (6 mg/mL in 30% acetonitrile, 30% methanol, and 0.1% TFA) for dried droplet crystallization. Analysis was done on Bruker Ultraflex with Daltonics flexAnalysis software, externally calibrated using a standard peptide mixture (Bruker, range: 1,000–3,200 Da). Spectra were recorded in positive linear mode and summed from 100 laser shots.
The MS mass of 84 fragments >800 Da was calculated. They were randomly generated from the 33-mer sequence, allowing for deamidation of up to two glutamine residues (only one deamidation for Mr <1500 Da) and for sodium and potassium ion adduct formation. Measured masses were matched to the predicted masses, using a difference of <0.5 Da as threshold. Masses from negative control samples were matched using a threshold of 1.0 and removed.

[2] = MALDI-TOF MS of fragments formed in vitro during incubation of 33-mer in mouse plasma; assay type: in vitro ADME; conditions: 33-mer in mouse plasma at 37°C, 5 kDa MWCO filtrate or SDS-PAGE gel slice, sequence assigned by mass match
From the text: The extracts were combined.

[3] = tested on: digestive proteases; conditions: cited from earlier work
[4] = In vitro incubation of 33-mer in blood plasma, SDS-PAGE and fluorography; assay type: in vitro ADME, C57BL/6 mouse; conditions: C57BL/6 plasma with 33-mer 28.6 ng/µl, 0-4 h
From the text: (§1) Supplementary file 2424306.f1.docx: Fig Supp 1. […] Abbreviations are as in Fig 1.Fig Supp 2. […] CT: control 33-mer/19-mer. […] CT is control 33-mer. […] CT is control 33-mer.

[5] = tested on: albumin and IgG; assay: Depletion of albumin and IgG from plasma, radioactivity in gel slices; assay type: in vivo, mouse
From the text: as §1

[6] = tested on: trypsin; assay: Trypsin digestion of plasma/serum followed by SDS-PAGE and fluorography; assay type: in vitro ADME; conditions: serum; dithiothreitol/SDS at 53°C pH 7.5 45 min, then trypsin at 37°C
From the text: as §1

[7] = LC-MS detection of 33-mer in plasma; assay type: in vivo, BALB/c mice; conditions: BALB/c, methanol-TFA precipitation
Method: BALB/c mice, 4–16 weeks of age, were given 650–900 μg of 33-mer, either i.v. or p.o., and heparin-plasma was prepared 15–60 min later at 0°C. Protein inhibitors were added to the tissues that were homogenized, mixed with internal standard (GENESEQP:AZF58701), and precipitated with 50% methanol, 1% TFA, and centrifugation. The samples were analyzed using an Orbitrap XL (Thermo Scientific) equipped with a Nano LC (Easy nLC II, Thermo Scientific). The chromatographic system was a 10 cm, ID 75 μm, 3 μm C18-A2 column (Thermo Scientific) with a flow of 300 nL/min with 0.1% formic acid as mobile phase A and 0.1% formic acid in acetonitrile as B. The MS scan was performed using a resolution of 30000 and a scan range of 300–2000 m/z.

[8] = mouse, in vivo, po
Method: (§2) For initial evaluation of accumulation and elimination in blood, NOD mice (6–8 weeks) received 230–900 μCi ^3H-33-mer or ^3H-19-mer. […] Organs were incubated with SOLVABLE (Perkin-Elmer) at 55°C until dissolved and then with 30% hydrogen peroxide to decolorize the solution. Ultima Gold (Perkin Elmer) was added, and samples were counted 1 h later in a Packard 1600TR scintillation counter.
(§3) Specific activities (dpm/mg tissue) were calculated by dividing the counts by the respective weight of the sample that was measured. The tissue distribution was examined using the tissue/blood ratios. To compare responses in blood across different doses (230–900 μCi), data were normalized to a dosage of 100 μCi.
(§4) Before oral gavage, mice were starved for 4 h and were not fed until 20 min after.
(§5) One-way ANOVA with Tukey posttest was carried out using GraphPad Prism version 5.00 for Windows (GraphPad Software, San Diego, California, USA) to analyze the distribution of the label at each time point. The stomach and intestine were excluded from the analysis due to their large variation.

[9] = mouse, in vivo
Method: (§6) Standard tissue sections were dipped in a 1 : 1 dilution in water of melted Kodak NTB Emulsion with 10% Amplify Fluorographic Reagent (GE Healthcare), air-dried, stored in the dark at 4°C with desiccant for 1–3 weeks, developed in Kodak D19 developer, fixed in Ilford Rapid Fixer, HE stained, and examined in an Olympus Bx51 microscope (UPlanSApo 20x, 0.40) equipped with a Colorview 1 camera and Analysis getIT software (Olympus).

[10] = mouse, in vivo; remark: listed apart in the source
Method: Heparin-plasma was prepared from tail blood at 0°C and analysed by SDS-PAGE without further processing, after depletion of albumin and IgG using a commercial kit (Protea Biosciences) or after digestion with trypsin (incubation with 125 mM dithiothreitol, 0.05% SDS at 53°C, pH 7.5 for 45 min, followed by digestion with trypsin (Fluka) at 37°C). The gel was fixed in 15% formalin/25% ethanol and Coomassie-stained. For fluorography, the fixed gels were soaked in 7% glycerol and Amplify Fluorographic Reagent (GE Healthcare), each for 30 min, dried, and exposed on Amersham Hyperfilm MP at −80°C. Subsequently, the dried gels were rehydrated in 7% acetic acid for 2–4 h and Coomassie-stained.
For scintillation counting, gel slices were excised from the nonfixed gel, covered with 600 μL of 30% hydrogen peroxide, and heated at 50°C overnight before measurement.
For kinetics studies, using SDS-PAGE and fluorography, 230 μCi ^3H-33-mer or 770 μCi of ^3H-19-mer was used for i.v. administration and 620–1200 μCi ^3H-33-mer was used for oral administration to NOD mice aged 6–8 weeks.
Blood and organs were sampled after 1, 24 and 72 h. […] Kinetics of 3H-33-mer and 3H-19-mer in mouse blood following i.v. and p.o. administration. 3H-33-mer (A) or 3H-19-mer (B) was given i.v. to NOD mice (6-8 weeks). Tail blood was analyzed by SDS-PAGE and fluorography at the indicated time points (min). CT: control 33-mer/19-mer. In (A, right), 660 µg of unlabeled 33-mer was injected prior to the labeled peptide. (C) 3H-33-mer was administered p.o. to NOD mice (6-8 weeks). Blood was analyzed after 0.5, 1 and 20 h. All lanes were loaded with the same amount of radioactivity. CT is control 33-mer. (D) Fluorogram of in vitro incubation of blood plasma from a C57BL/6 mouse with 33-mer (28.6 ng/µl or 222.000 dpm/µl) for 0-4 h. CT is control 33-mer. (E) Plasma from mice, that had received 3H-labelled 33-mer one hour earlier by i.v. or p.o. administration, was depleted of albumin and IgG. […] Data were normalized between lanes to contain identical amounts of radioactivity outside the albumin/IgG region. […]

[11] = Autoradiography of mouse tissues; conditions: 1 h after oral administration
Method: as §6

[12] = SDS-PAGE and fluorography of blood after i.v. or p.o. administration; conditions: mice, data not shown
[13] = Biodistribution of 3H label after oral administration (scintillation counting, tissue/blood ratio); conditions: NOD mice, shortly after administration (Figure 1(a)), 0.01 < p < 0.05, N = 2–4 mice
Method: as §2, §3, §4, §5

## QLQPFPQPELP
[1]
  Sample in which the 33-mer fragment was found: Plasma, NOD

## YPQPQPF
[2]
  Sample (filtrate or gel slice range) in which the fragment was found: Filtrate
[1]
  Sample in which the 33-mer fragment was found: Plasma, NOD

## LQLQPFPQPELPYPQPELPYPQPELPYPQPQ [33-mer fragment formed in mouse plasma in vitro, MALDI-TOF MS mass match]
[2]
  Sample (filtrate or gel slice range) in which the fragment was found: 14–17 kDa

## LQLQPFPQPELPYPQPE
[2]
  Sample (filtrate or gel slice range) in which the fragment was found: 4–6 kDa
[1]
  Sample in which the 33-mer fragment was found: Plasma, NOD

## LQLQPFPQPELPYPQPELPYPQPELPYPQPQP
[2]
  Sample (filtrate or gel slice range) in which the fragment was found: 4–6 kDa
[3]
  Stability as originally described: stable
[1]
  Sample in which the 33-mer fragment was found: Plasma, C57BL/6

## ELPYPQPELPYP
[1]
  Sample in which the 33-mer fragment was found: Plasma, NOD pancreas, NOD

## ELPYPQPQPF
[1]
  Sample in which the 33-mer fragment was found: Plasma, NOD

## H-LQLQPFPQPELPYPQPELPYPQPELPYPQPQPF-OHY [33-mer]
[4]
  Formation of 12 kDa and HMW signals in vitro: the 12 kDa signal, but not the HMW signal, also formed in vitro
[5]; 3H-33-mer added to blood in vitro, or cold peptide injected prior to labeled peptide
  Label removed by depletion of albumin and IgG: 14-15%
[5]; blood of mice that had received 33-mer, regardless of route, plasma 1 h after administration
  Label removed by depletion of albumin and IgG: 35%
[6]
  Degradation by trypsin: degrades albumin, but not 33-mer
[7]; 650 µg p.o., 60 min
  Intact peptide in plasma after oral administration: detected intact peptide; also recorded: close to the detection limit, and the peptide was not detected in all mice
[7]; 850 µg i.v., 15, 30 and 60 min
  Intact peptide in plasma after intravenous administration: detected intact peptide
[2]
  Sample (filtrate or gel slice range) in which the fragment was found: 4–6 kDa, 6–9 kDa, 14–17 kDa
[8]
  Absorption from the intestine: readily absorbed from the intestine
  Level of label in the pancreas relative to blood: high level of label
  Presence of label at early time points: present 1/2 h after administration and still remained 3 hours after oral administration
[9]
  Difference between i.v. and p.o. administration in autoradiography: No difference was seen
[10]; iv
  Emergence of higher molecular weight species (HMW) in blood after injection: After 1 h, higher molecular weight species (HMW) emerged
[10]; po
  33-mer signal in blood after oral administration: still present in the blood, although in low amounts
[3]
  Resistance to digestive proteases: resistant to digestive proteases
[11]
  Label in zymogen granules of the pancreas: high accumulation of label
[11]; lung, kidney, ileum
  Label in all other tissues examined: homogenous labeling was observed
[1]; after oral 33-mer
  Longest peptide detected in blood: 32-mer

## QPFPQPELPYPQPELPYPQPELPYPQPQ
[1]
  Sample in which the 33-mer fragment was found: Plasma, NOD, C57BL/6

## H-LGQQQPFPPQQPYPQPQPF-OHY [19-mer]
[8]
  Absorption from the intestine: readily absorbed from the intestine
  Level of label in the pancreas relative to blood: high level of label
  Presence of label at early time points: present 1/2 h after administration and still remained 3 hours after oral administration
[3]
  Resistance to digestive proteases: resistant to digestive proteases

## LQLQPFPQPELPYPQPELPYPQPELPYP
[1]
  Sample in which the 33-mer fragment was found: Plasma, NOD, C57BL/6

## ELPYPQPELPYPQPELPYPQPQPF [33-mer fragment formed in mouse plasma in vitro, MALDI-TOF MS mass match]
[2]
  Sample (filtrate or gel slice range) in which the fragment was found: 14–18 kDa

## QLQPFPQPELPYPQPELPYPQPELPYPQPQP [33-mer fragment formed in mouse plasma in vitro, MALDI-TOF MS mass match]
[2]
  Sample (filtrate or gel slice range) in which the fragment was found: 14–17 kDa

## QPFPQPELP
[1]
  Sample in which the 33-mer fragment was found: Plasma, NOD

## ELPYPQPELPYPQPELPY [33-mer fragment formed in mouse plasma in vitro, MALDI-TOF MS mass match]
[2]
  Sample (filtrate or gel slice range) in which the fragment was found: Filtrate

## QPFPQPELPYPQPELPYPQPELPYPQPQP
[1]
  Sample in which the 33-mer fragment was found: Plasma, NOD, C57BL/6

## LQLQPFPQPELPYPQPELPYPQPELPYPQP [33-mer fragment formed in mouse plasma in vitro, MALDI-TOF MS mass match]
[2]
  Sample (filtrate or gel slice range) in which the fragment was found: 14–18 kDa

## ELPYPQPELP
[1]
  Sample in which the 33-mer fragment was found: Plasma, NOD pancreas, C57BL/6

## LPYPQPELPYPQPQPF
[1]
  Sample in which the 33-mer fragment was found: Pancreas, NOD, C57BL/6

## ELPYPQPEL [33-mer fragment formed in mouse plasma in vitro, MALDI-TOF MS mass match]
[2]
  Sample (filtrate or gel slice range) in which the fragment was found: Filtrate

## QPFPQPELPYPQPELPYPQPELPYPQPQPF [33-mer fragment formed in mouse plasma in vitro, MALDI-TOF MS mass match]
[2]
  Sample (filtrate or gel slice range) in which the fragment was found: 14–18 kDa

## QPFPQPELPY
[2]
  Sample (filtrate or gel slice range) in which the fragment was found: Filtrate
[1]
  Sample in which the 33-mer fragment was found: Pancreas C57BL/6

## PFPQPELPYPQPELPYPQPELPYPQPQPF [33-mer fragment formed in mouse plasma in vitro, MALDI-TOF MS mass match]
[2]
  Sample (filtrate or gel slice range) in which the fragment was found: 10–12 kDa

## ELPYPQPELPYPQ
[1]
  Sample in which the 33-mer fragment was found: Plasma, NOD

## ELPYPQPELPYPQPEL [33-mer fragment formed in mouse plasma in vitro, MALDI-TOF MS mass match]
[2]
  Sample (filtrate or gel slice range) in which the fragment was found: Filtrate

## N[C@@H](Cc1ccc(O)cc1)C(=O)O [3H-tyrosine, tyrosine]
[12]
  HMW band after injection: appearance of the HMW band
[13]
  Level of label in the pancreas relative to blood: accumulated similarly to the 33- and 19-mer

## QLQPFPQPEL
[1]
  Sample in which the 33-mer fragment was found: Pancreas, C57BL/6

## FPQPELPYPQPELPYPQPELPYPQPQPF [33-mer fragment formed in mouse plasma in vitro, MALDI-TOF MS mass match]
[2]
  Sample (filtrate or gel slice range) in which the fragment was found: 10–12 kDa

## FPQPELPY
[1]
  Sample in which the 33-mer fragment was found: Plasma, C57BL/6

## LQPFPQPELPYPQPELPYPQPELPYPQPQ
[1]
  Sample in which the 33-mer fragment was found: Plasma, NOD, C57BL/6

## LQLQPFPQPE
[1]
  Sample in which the 33-mer fragment was found: Pancreas, C57BL/6

## YPQPELPYPQPQPF
[2]
  Sample (filtrate or gel slice range) in which the fragment was found: Filtrate
[1]
  Sample in which the 33-mer fragment was found: Plasma, NOD, C57BL/6
